Organism: Rattus norvegicus
Assay: Open TG-GATES - Regimen: Single
Assay type: toxicity, organism-based, Sprague-Dawley
Set-up: regimen Single, gender Male, age 6 weeks
Conditions: in vivo, po, route gavage; for APTT / Bas / Eos / Fbg / Hb / Ht / Lym / MCH / MCHC / MCV / Mono / Neu / PT / Plat / RBC / Ret / WBC: tissue Blood; for KIDNEY_L / KIDNEY_R / KIDNEY_TOTAL: tissue Kidney; for LIVER: tissue Liver; for A/G / ALP / ALT / AST / BUN / CRE / Ca / Cl / DBIL / GLC / IP / K / LDH / Na / PL / RALB / TBIL / TC / TG / TP / gamma-GTP: tissue Plasma
[1] = 50 mg/kg, 3 h, dose level Middle
[2] = 50 mg/kg, 6 h, dose level Middle
[3] = 50 mg/kg, 9 h, dose level Middle
[4] = 50 mg/kg, 24 h, dose level Middle
[5] = 150 mg/kg, 3 h, dose level High
[6] = 150 mg/kg, 6 h, dose level High
[7] = 150 mg/kg, 9 h, dose level High
[8] = 150 mg/kg, 24 h, dose level High

## O=c1ccc2ccccc2o1 [COUMARIN]
[1]
  TERMINAL_BW: 184.1 g
  APTT: 16.3 s
  Bas: 0%
  Eos: 0.6%
  Fbg: 198 mg/dL
  Hb: 13.4 g/dL
  Ht: 40.4%
  Lym: 81.4%
  MCH: 21.9 pg
  MCHC: 33.2%
  MCV: 65.9 fL
  Mono: 4%
  Neu: 14.2%
  PT: 12.7 s
  Plat: 114.8 x10_4/uL
  RBC: 613.6 x10_4/ul
  Ret: 9.3%
  WBC: 104.2 x10_2/uL
  KIDNEY_L: 0.9 g
  KIDNEY_R: 0.9 g
  KIDNEY_TOTAL: 1.7 g
  LIVER: 8.1 g
  A/G: 2.3
  ALP: 989.4 IU/L
  ALT: 39.4 IU/L
  AST: 68 IU/L
  BUN: 12 mg/dL
  CRE: 0.5 mg/dL
  Ca: 10.7 mg/dL
  Cl: 103.2 meq/L
  DBIL: 0.032 mg/dL
  GLC: 191.4 mg/dL
  IP: 10.4 mg/dL
  K: 4.7 meq/L
  LDH: 74.4 IU/L
  Na: 138 meq/L
  PL: 141 mg/dL
  RALB: 3.8 g/dL
  TBIL: 0.3 mg/dL
  TC: 76.4 mg/dL
  TG: 49.8 mg/dL
  TP: 5.5 g/dL
  gamma-GTP: 1 IU/L
[2]
  TERMINAL_BW: 180.4 g
  APTT: 16.5 s
  Bas: 0%
  Eos: 0.8%
  Fbg: 210.2 mg/dL
  Hb: 13.5 g/dL
  Ht: 40.4%
  Lym: 79.8%
  MCH: 21.7 pg
  MCHC: 33.3%
  MCV: 65 fL
  Mono: 5.8%
  Neu: 13.8%
  PT: 12.8 s
  Plat: 104.8 x10_4/uL
  RBC: 620.8 x10_4/ul
  Ret: 9.7%
  WBC: 103 x10_2/uL
  KIDNEY_L: 0.8 g
  KIDNEY_R: 0.9 g
  KIDNEY_TOTAL: 1.7 g
  LIVER: 7.7 g
  A/G: 2.1
  ALP: 1018 IU/L
  ALT: 37.2 IU/L
  AST: 70 IU/L
  BUN: 11.4 mg/dL
  CRE: 0.5 mg/dL
  Ca: 10.4 mg/dL
  Cl: 106 meq/L
  DBIL: 0.004 mg/dL
  GLC: 183 mg/dL
  IP: 10.2 mg/dL
  K: 5 meq/L
  LDH: 98.6 IU/L
  Na: 138.4 meq/L
  PL: 155.6 mg/dL
  RALB: 3.7 g/dL
  TBIL: 0.3 mg/dL
  TC: 89 mg/dL
  TG: 62.4 mg/dL
  TP: 5.6 g/dL
  gamma-GTP: 1.4 IU/L
[3]
  TERMINAL_BW: 175.7 g
  APTT: 16.7 s
  Bas: 0%
  Eos: 0.6%
  Fbg: 186.4 mg/dL
  Hb: 13.3 g/dL
  Ht: 40.2%
  Lym: 77.6%
  MCH: 22.1 pg
  MCHC: 33.2%
  MCV: 66.6 fL
  Mono: 6.2%
  Neu: 15.6%
  PT: 13 s
  Plat: 102.3 x10_4/uL
  RBC: 606 x10_4/ul
  Ret: 9.6%
  WBC: 95.4 x10_2/uL
  KIDNEY_L: 0.8 g
  KIDNEY_R: 0.8 g
  KIDNEY_TOTAL: 1.7 g
  LIVER: 7.2 g
  A/G: 2.1
  ALP: 1020.8 IU/L
  ALT: 38.6 IU/L
  AST: 74.2 IU/L
  BUN: 11.4 mg/dL
  CRE: 0.5 mg/dL
  Ca: 11.1 mg/dL
  Cl: 106 meq/L
  DBIL: 0.052 mg/dL
  GLC: 189.6 mg/dL
  IP: 10.7 mg/dL
  K: 5.1 meq/L
  LDH: 104.6 IU/L
  Na: 139 meq/L
  PL: 141.4 mg/dL
  RALB: 3.7 g/dL
  TBIL: 0.3 mg/dL
  TC: 79.4 mg/dL
  TG: 63 mg/dL
  TP: 5.5 g/dL
  gamma-GTP: 1 IU/L
[4]
  TERMINAL_BW: 189.1 g
  APTT: 15.5 s
  Bas: 0%
  Eos: 1.6%
  Fbg: 192 mg/dL
  Hb: 13.4 g/dL
  Ht: 40.2%
  Lym: 76.4%
  MCH: 22 pg
  MCHC: 33.4%
  MCV: 66 fL
  Mono: 11.4%
  Neu: 11.2%
  PT: 12.4 s
  Plat: 110.8 x10_4/uL
  RBC: 609 x10_4/ul
  Ret: 8.4%
  WBC: 100 x10_2/uL
  KIDNEY_L: 0.9 g
  KIDNEY_R: 0.9 g
  KIDNEY_TOTAL: 1.8 g
  LIVER: 9.4 g
  A/G: 2.3
  ALP: 978.2 IU/L
  ALT: 48 IU/L
  AST: 74.6 IU/L
  BUN: 15 mg/dL
  CRE: 0.6 mg/dL
  Ca: 10.9 mg/dL
  Cl: 105.8 meq/L
  DBIL: 0.012 mg/dL
  GLC: 186.8 mg/dL
  IP: 8 mg/dL
  K: 5.1 meq/L
  LDH: 113 IU/L
  Na: 138.2 meq/L
  PL: 140.2 mg/dL
  RALB: 3.8 g/dL
  TBIL: 0.3 mg/dL
  TC: 77 mg/dL
  TG: 66.6 mg/dL
  TP: 5.5 g/dL
  gamma-GTP: 1.2 IU/L
[5]
  TERMINAL_BW: 182 g
  APTT: 16 s
  Bas: 0%
  Eos: 0.6%
  Fbg: 201.2 mg/dL
  Hb: 13.9 g/dL
  Ht: 42.2%
  Lym: 73.6%
  MCH: 22.2 pg
  MCHC: 33%
  MCV: 67.3 fL
  Mono: 5%
  Neu: 20.8%
  PT: 12.6 s
  Plat: 131.8 x10_4/uL
  RBC: 627.6 x10_4/ul
  Ret: 9.9%
  WBC: 86 x10_2/uL
  KIDNEY_L: 0.8 g
  KIDNEY_R: 0.9 g
  KIDNEY_TOTAL: 1.7 g
  LIVER: 8.3 g
  A/G: 2.1
  ALP: 1017.8 IU/L
  ALT: 45.4 IU/L
  AST: 76.4 IU/L
  BUN: 11.4 mg/dL
  CRE: 0.4 mg/dL
  Ca: 10.7 mg/dL
  Cl: 100.6 meq/L
  DBIL: 0 mg/dL
  GLC: 220.8 mg/dL
  IP: 11.2 mg/dL
  K: 4.3 meq/L
  LDH: 175 IU/L
  Na: 137.8 meq/L
  PL: 158.4 mg/dL
  RALB: 3.8 g/dL
  TBIL: 0.2 mg/dL
  TC: 89.6 mg/dL
  TG: 53 mg/dL
  TP: 5.7 g/dL
  gamma-GTP: 1.6 IU/L
[6]
  TERMINAL_BW: 176.6 g
  APTT: 16.5 s
  Bas: 0%
  Eos: 0.6%
  Fbg: 210.4 mg/dL
  Hb: 14.8 g/dL
  Ht: 44.4%
  Lym: 68.4%
  MCH: 21.4 pg
  MCHC: 33.2%
  MCV: 64.4 fL
  Mono: 7.4%
  Neu: 24.2%
  PT: 13 s
  Plat: 111.1 x10_4/uL
  RBC: 690.2 x10_4/ul
  Ret: 8.7%
  WBC: 61.8 x10_2/uL
  KIDNEY_L: 0.8 g
  KIDNEY_R: 0.8 g
  KIDNEY_TOTAL: 1.6 g
  LIVER: 7.3 g
  A/G: 2.2
  ALP: 951.6 IU/L
  ALT: 45.2 IU/L
  AST: 77.6 IU/L
  BUN: 16 mg/dL
  CRE: 0.5 mg/dL
  Ca: 10.3 mg/dL
  Cl: 102.4 meq/L
  DBIL: 0.008 mg/dL
  GLC: 190.6 mg/dL
  IP: 10.1 mg/dL
  K: 4.5 meq/L
  LDH: 203.2 IU/L
  Na: 138 meq/L
  PL: 144.2 mg/dL
  RALB: 4 g/dL
  TBIL: 0.2 mg/dL
  TC: 94.4 mg/dL
  TG: 23.4 mg/dL
  TP: 5.9 g/dL
  gamma-GTP: 1.4 IU/L
[7]
  TERMINAL_BW: 175.4 g
  APTT: 16.4 s
  Bas: 0%
  Eos: 1%
  Fbg: 196.4 mg/dL
  Hb: 14.5 g/dL
  Ht: 43.8%
  Lym: 76.8%
  MCH: 21.6 pg
  MCHC: 33.1%
  MCV: 65.2 fL
  Mono: 8%
  Neu: 14.4%
  PT: 13.2 s
  Plat: 100.6 x10_4/uL
  RBC: 672.6 x10_4/ul
  Ret: 9.7%
  WBC: 79.6 x10_2/uL
  KIDNEY_L: 0.8 g
  KIDNEY_R: 0.8 g
  KIDNEY_TOTAL: 1.6 g
  LIVER: 7.3 g
  A/G: 2.1
  ALP: 950 IU/L
  ALT: 37.4 IU/L
  AST: 75.8 IU/L
  BUN: 15.2 mg/dL
  CRE: 0.5 mg/dL
  Ca: 10.6 mg/dL
  Cl: 102.4 meq/L
  DBIL: 0.04 mg/dL
  GLC: 182.8 mg/dL
  IP: 9.8 mg/dL
  K: 4.4 meq/L
  LDH: 153.2 IU/L
  Na: 137.4 meq/L
  PL: 147.2 mg/dL
  RALB: 3.8 g/dL
  TBIL: 0.3 mg/dL
  TC: 93 mg/dL
  TG: 22.4 mg/dL
  TP: 5.6 g/dL
  gamma-GTP: 1.2 IU/L
[8]
  TERMINAL_BW: 177.1 g
  APTT: 16 s
  Bas: 0%
  Eos: 1.2%
  Fbg: 181.2 mg/dL
  Hb: 14 g/dL
  Ht: 42%
  Lym: 77.2%
  MCH: 21.6 pg
  MCHC: 33.2%
  MCV: 65.1 fL
  Mono: 9.6%
  Neu: 12.6%
  PT: 12.9 s
  Plat: 118.7 x10_4/uL
  RBC: 645.8 x10_4/ul
  Ret: 7.5%
  WBC: 85.4 x10_2/uL
  KIDNEY_L: 0.8 g
  KIDNEY_R: 0.9 g
  KIDNEY_TOTAL: 1.7 g
  LIVER: 8.5 g
  A/G: 2.1
  ALP: 1067.4 IU/L
  ALT: 40.2 IU/L
  AST: 85.8 IU/L
  BUN: 15.6 mg/dL
  CRE: 0.6 mg/dL
  Ca: 11 mg/dL
  Cl: 105.2 meq/L
  DBIL: 0.016 mg/dL
  GLC: 179 mg/dL
  IP: 8.6 mg/dL
  K: 5.3 meq/L
  LDH: 202.8 IU/L
  Na: 137.8 meq/L
  PL: 121.2 mg/dL
  RALB: 3.7 g/dL
  TBIL: 0.4 mg/dL
  TC: 68.2 mg/dL
  TG: 42.6 mg/dL
  TP: 5.5 g/dL
  gamma-GTP: 1.2 IU/L

Source: ChEMBL document CHEMBL3885861, “Open TG-GATES”
